Test results: ChEMBL document CHEMBL1201862, “PubChem BioAssay data set” (2004)
Calls of active or inactive are those of the source.

Key:
HEK293 [1] = assay: NOD1 signaling inhibitors, primary screen, cell-based, luminescence, uHTS (AID 1578); assay type: functional; details: Homo sapiens
Tumor necrosis factor = Tumor necrosis factor (Homo sapiens, UniProt P01375); assay: TNFa-triggered NF-kB activation inhibitors, SAR follow-up, cell-based, revised (AID 2337); assay type: functional
HEK293 [2] = assay: cells; details: Homo sapiens
[3] = target: T1, Nucleotide-binding oligomerization domain-containing protein 1 (Homo sapiens, UniProt Q9Y239); assay: NOD1 signaling inhibitors, SAR follow-up, revised (AID 2333); assay type: functional
T1 sequence (Q9Y239 whole entry): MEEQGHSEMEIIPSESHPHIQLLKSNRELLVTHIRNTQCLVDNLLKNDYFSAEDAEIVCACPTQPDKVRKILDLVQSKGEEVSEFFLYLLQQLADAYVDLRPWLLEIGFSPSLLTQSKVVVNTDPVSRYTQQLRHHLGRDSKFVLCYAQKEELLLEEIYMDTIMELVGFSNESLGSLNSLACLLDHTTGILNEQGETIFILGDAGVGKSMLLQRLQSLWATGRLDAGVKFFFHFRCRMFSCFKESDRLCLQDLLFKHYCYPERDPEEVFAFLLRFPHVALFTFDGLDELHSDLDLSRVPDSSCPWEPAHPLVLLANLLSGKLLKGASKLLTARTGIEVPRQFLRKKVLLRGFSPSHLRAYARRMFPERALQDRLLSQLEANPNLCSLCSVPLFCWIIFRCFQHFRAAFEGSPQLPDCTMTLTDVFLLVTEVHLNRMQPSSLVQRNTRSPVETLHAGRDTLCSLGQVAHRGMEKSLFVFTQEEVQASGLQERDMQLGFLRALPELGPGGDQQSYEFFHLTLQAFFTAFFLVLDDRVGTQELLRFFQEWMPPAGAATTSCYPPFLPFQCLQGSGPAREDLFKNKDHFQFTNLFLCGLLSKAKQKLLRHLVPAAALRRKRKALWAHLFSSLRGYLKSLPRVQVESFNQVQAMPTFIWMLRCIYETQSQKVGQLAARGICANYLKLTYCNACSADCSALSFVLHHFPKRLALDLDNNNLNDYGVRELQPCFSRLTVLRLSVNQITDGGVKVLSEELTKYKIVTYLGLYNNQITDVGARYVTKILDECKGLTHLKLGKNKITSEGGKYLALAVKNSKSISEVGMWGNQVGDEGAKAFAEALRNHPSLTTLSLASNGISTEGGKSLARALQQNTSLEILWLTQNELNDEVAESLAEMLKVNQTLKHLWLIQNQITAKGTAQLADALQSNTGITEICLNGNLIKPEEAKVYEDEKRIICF

HEK293 [4] = assay: cells; assay type: functional, cell-based; details: Homo sapiens
Galanin receptor type 3 = Galanin receptor type 3 (Homo sapiens, UniProt O60755); assay: Fluorescence-based cell-based primary high throughput dose response assay to identify antagonists of the Galanin Receptor 3 (GalR3).; assay type: functional
Sequence of Galanin receptor type 3 (O60755 whole entry): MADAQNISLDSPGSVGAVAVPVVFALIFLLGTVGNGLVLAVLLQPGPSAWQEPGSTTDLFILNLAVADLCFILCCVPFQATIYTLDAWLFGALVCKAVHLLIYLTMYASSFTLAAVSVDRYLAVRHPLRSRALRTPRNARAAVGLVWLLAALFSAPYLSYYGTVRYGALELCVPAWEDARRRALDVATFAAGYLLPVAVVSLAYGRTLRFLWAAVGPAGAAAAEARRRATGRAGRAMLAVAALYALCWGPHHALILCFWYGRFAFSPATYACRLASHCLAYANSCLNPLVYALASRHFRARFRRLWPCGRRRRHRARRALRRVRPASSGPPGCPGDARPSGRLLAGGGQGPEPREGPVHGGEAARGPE

INS1 = assay: beta cell apoptosis inhibitors, cytokine rescue, dose response, luminescence, retest (AID 449756); assay type: functional, cell-based; details: Rattus norvegicus;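 note: cell death triggered by IL-1 beta plus TNF-alpha plus IFN-gamma mixture; protective hits raise ATP signal compared with cytokine alone wells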
[5] = target: T2, COUP transcription factor 2 (Homo sapiens, UniProt P24468); assay: Luminescence-based cell-based high throughput dose response assay to identify inhibitors of COUP-TFII (NR2F2).; assay type: functional;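 note: HEK293 cells transiently cotransfected with COUP-TFII expression vector and reporter; luciferase reporter luminescence driven by COUP-TFII from the pX2-168 reporter plasmid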
T2 sequence (P24468 whole entry): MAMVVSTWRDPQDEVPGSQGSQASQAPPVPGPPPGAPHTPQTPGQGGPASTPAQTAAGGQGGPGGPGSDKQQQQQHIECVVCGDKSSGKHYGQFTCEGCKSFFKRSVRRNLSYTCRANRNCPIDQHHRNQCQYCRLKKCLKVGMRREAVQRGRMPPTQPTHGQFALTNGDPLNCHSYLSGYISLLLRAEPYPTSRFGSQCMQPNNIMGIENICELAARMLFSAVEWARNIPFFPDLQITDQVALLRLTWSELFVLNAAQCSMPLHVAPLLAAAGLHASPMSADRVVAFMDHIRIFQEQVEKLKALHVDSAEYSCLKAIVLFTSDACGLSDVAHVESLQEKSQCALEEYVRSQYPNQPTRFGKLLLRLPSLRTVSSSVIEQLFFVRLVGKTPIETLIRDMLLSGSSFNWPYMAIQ

HEK293 [6] = assay: cells; assay type: functional, cell-based; details: Homo sapiens; remark: listed apart in the source
HEK293 [7] = assay: NOD2 signaling inhibitors in MDP-stimulated cells, cell-based, uHTS, luminescence (AID 2001); assay type: functional; details: Homo sapiens
cells = assay type: functional, cell-based; details: HEK-CNG
[8] = target: T3, Replicative DNA helicase DnaB (Mycobacterium tuberculosis, UniProt P9WMR3); assay: DnaB intein splicing inhibitors, dose response, biochemical, cell-free fluorescence (AID 449749); assay type: functional
T3 sequence (P9WMR3 whole entry): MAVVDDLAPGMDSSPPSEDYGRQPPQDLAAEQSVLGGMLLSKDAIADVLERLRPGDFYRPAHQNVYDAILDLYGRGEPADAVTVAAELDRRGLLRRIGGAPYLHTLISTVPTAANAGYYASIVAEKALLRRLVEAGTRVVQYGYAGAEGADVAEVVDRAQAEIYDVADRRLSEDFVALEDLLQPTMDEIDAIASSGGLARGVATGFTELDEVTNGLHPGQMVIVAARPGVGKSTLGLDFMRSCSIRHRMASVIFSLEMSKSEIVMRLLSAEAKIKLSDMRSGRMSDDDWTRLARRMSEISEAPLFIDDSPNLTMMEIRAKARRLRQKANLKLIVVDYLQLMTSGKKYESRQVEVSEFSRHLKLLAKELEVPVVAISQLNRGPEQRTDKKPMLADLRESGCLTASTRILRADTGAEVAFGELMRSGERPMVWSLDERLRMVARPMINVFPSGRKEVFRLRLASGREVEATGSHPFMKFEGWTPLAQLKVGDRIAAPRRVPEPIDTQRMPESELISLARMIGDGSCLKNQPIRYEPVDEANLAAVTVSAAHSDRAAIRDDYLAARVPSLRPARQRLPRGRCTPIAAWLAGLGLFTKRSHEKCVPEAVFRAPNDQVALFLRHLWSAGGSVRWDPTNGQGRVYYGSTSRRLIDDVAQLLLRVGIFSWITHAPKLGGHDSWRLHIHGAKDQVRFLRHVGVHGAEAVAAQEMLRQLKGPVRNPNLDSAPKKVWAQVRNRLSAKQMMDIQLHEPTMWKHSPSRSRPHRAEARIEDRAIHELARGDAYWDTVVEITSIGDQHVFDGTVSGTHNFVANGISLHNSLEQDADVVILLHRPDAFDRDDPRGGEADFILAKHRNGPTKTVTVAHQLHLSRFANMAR

Protein RecA = target: T4, Protein RecA (Mycobacterium tuberculosis, UniProt P9WHJ3); assay: Fluorescence Cell-Free Homogeneous Dose Retest to Identify Inhibitors of RecA-Intein Splicing Activity. [Related pubchem assays (depositor defined):AID2097, AID2223, AID489010, AID492950]; assay type: functional
T4 sequence (P9WHJ3 whole entry): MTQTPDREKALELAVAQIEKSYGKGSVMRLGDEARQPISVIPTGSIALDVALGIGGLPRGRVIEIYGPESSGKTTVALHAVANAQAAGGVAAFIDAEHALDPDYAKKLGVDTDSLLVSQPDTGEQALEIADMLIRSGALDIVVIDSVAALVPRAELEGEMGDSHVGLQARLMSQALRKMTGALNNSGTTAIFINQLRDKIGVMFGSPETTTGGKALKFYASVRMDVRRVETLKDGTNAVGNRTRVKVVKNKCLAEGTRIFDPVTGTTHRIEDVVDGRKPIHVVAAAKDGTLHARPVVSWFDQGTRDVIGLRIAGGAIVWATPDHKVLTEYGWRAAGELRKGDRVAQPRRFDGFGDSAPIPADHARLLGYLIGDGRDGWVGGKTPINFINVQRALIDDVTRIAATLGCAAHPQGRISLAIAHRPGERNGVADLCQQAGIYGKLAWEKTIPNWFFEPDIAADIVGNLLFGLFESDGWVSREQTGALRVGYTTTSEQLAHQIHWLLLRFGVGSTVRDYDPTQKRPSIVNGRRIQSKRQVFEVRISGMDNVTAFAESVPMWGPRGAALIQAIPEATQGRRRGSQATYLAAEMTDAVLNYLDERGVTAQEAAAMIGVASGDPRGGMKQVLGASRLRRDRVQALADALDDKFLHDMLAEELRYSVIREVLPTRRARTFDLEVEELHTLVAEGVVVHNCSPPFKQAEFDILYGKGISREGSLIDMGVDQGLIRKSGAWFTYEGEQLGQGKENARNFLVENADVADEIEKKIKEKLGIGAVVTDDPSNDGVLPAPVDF

[9] = target: Tyrosyl-DNA phosphodiesterase 2 (Homo sapiens, UniProt O95551); assay: human TDP2 enzyme inhibitors, dose response, biochemical, epi absorbance, IC50 (AID 743297)
Sequence of Tyrosyl-DNA phosphodiesterase 2 (O95551 whole entry): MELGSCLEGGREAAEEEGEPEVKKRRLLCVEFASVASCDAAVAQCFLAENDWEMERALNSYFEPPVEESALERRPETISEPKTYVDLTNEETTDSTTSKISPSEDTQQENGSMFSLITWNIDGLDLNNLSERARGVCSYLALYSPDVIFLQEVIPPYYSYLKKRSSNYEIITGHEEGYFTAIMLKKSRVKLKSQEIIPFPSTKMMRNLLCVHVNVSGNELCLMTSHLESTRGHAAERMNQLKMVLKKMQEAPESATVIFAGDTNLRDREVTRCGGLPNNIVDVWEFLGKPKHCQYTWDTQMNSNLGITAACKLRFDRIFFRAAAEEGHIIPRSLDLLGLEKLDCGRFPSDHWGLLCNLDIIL

[10] = non-specific cell cytotoxicity, dose response, cytotoxicity control for PAX8 inhibitor project, plate reader, dry powder samples (AID 743021); assay type: functional, cell-based
[11] = P. falciparum Dd2 growth inhibitors, dose response, SYBR Green, cherry-picked samples (AID 1159567); assay type: functional, cell-based
Paired box protein Pax-8 = Paired box protein Pax-8 (Homo sapiens, UniProt Q06710); assay: inhibitors of PAX8-driven TPO luciferase reporter, dose response, RMG-I cells, cherry-pick (AID 687027); assay type: functional, cell-based;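 note: luciferase reporter driven by Pax8 target thyroperoxidase promoter measured by SteadyGlo luminescence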
Sequence of Paired box protein Pax-8 (Q06710 whole entry): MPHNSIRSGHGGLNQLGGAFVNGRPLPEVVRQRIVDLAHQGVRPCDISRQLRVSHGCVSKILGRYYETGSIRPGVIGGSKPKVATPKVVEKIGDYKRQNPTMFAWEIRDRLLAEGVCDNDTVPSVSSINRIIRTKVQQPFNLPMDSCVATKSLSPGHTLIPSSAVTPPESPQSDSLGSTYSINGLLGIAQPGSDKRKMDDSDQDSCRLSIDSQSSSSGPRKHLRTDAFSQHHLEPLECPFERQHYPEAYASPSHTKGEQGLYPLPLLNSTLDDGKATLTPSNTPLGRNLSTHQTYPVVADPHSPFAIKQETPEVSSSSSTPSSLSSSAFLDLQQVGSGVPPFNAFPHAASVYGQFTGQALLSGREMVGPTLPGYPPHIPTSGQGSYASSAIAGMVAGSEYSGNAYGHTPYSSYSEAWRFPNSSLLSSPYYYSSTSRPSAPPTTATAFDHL

[12] = HepG2 cell cytotoxicity, dose response, cytotoxicity control, cherry-picked samples (AID 1159577); assay type: functional, cell-based
[13] = IGROV1 ovarian cancer cell cytotoxicity, dose response, PAX8 inhibitor project, plate reader, dry powder samples (AID 743043); assay type: functional, cell-based; details: IGROV-1
[14] = cytotoxicity in OVCAR8 ovarian cancer cells, dose response, PAX8 project, cell-based, plate reader, dry powder samples (AID 743197); assay type: functional; details: OVCAR-8

Sequence of Tumor necrosis factor (P01375 whole entry): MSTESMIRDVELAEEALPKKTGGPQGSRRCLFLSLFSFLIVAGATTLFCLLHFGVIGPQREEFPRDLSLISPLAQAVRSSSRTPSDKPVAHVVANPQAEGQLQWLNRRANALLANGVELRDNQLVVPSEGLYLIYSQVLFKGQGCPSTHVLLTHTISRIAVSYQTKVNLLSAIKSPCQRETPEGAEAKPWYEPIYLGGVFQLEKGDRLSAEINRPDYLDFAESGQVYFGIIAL

SMILES: C=CCC1(CC=C)CCCN1C(=O)c1cc(COc2ccc(C)nc2)on1
- EC50 (HEK293 [1]): 2.7 µM (active)
- IC50 (Tumor necrosis factor): 4.24 µM (active)
- IC50 (HEK293 [2]): 19 µM (active)
- IC50 [3]: 2.67 µM (active)
- IC50 (HEK293 [4]): 14.1 µM (active)
- IC50 (Galanin receptor type 3): 1.25 µM (active)
- AC50 (INS1): 2.13 µM (active)
- IC50 [5]: 11.8 µM (inactive)
- IC50 (HEK293 [6]): 4.44 µM (active)
- IC50 (HEK293 [7]): 7.3 µM (active)
- EC50 (cells): > 29.9 µM (inactive)

SMILES: COc1ccc(/C=C2/C(=O)N(c3ccccc3)N=C2C)cc1Br
- AC50 [8]: 2.77 µM (active)
- EC50 (Protein RecA): 2.3 µM (active)
- IC50 [9]: 102 µM (inactive)

SMILES: O=C1CN(S(=O)(=O)Cc2ccccc2)C[C@@H]2[C@@H](c3ccc(C#Cc4ccc(F)cc4)cc3)[C@@H](CO)N12
- AC50 [10]: 18.5 µM (active)
- AC50 [11]: 5.57 µM (active)
- AC50 (Paired box protein Pax-8): 4.64 µM (active)
- AC50 [12]: 9.1 µM (active)
- AC50 [13]: 17.4 µM (active)
- AC50 [14]: 35.9 µM (active)
